The text below walks through data of patent US20120202690A1, “HERBICIDAL COMPOUNDS” (SYNGENTA LIMITED, priority 2009, published 2012).

Holding throughout (format): in vivo
Assay [1] has as its system Alopecurus myosuroides (ALOMY). Put plainly: Pre-emergence biological efficacy, glasshouse, 1000 g/ha, evaluated after 13 days (100=total damage to plant; 0=no damage to plant). To be noted: Alopecurus myosuroides, 312 h, read-out: Percentage damage caused to weed species, pre-emergence, ALOMY; for pest or weed control at 1000 g/ha: rate 1,000 g/ha. The method in brief: (§1)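 Test species are sown into pots of standard soil. Plants then grow in the glasshouse under controlled conditions (24/16° C. day/night, 14 hours light, 65% humidity) and receive water twice a day.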

Assay [2] relates to Setaria faberi (SETFA). Described as above. The note with it: Setaria faberi, 312 h, read-out: Percentage damage caused to weed species, pre-emergence, SETFA; for pest or weed control at 1000 g/ha: rate 1,000 g/ha. The procedure, abridged:
as §1

The test system of assay [3] is Solanum nigrum (SOLNI). Described as above. The note with it: Solanum nigrum, 312 h, read-out: Percentage damage caused to weed species, pre-emergence, SOLNI; for pest or weed control at 1000 g/ha: rate 1,000 g/ha. The method in brief:
as §1

Assay [4] relates to Amaranthus retroflexus (AMARE). Described as above. To be noted: Amaranthus retroflexus, 312 h, read-out: Percentage damage caused to weed species, pre-emergence, AMARE; for pest or weed control at 1000 g/ha: rate 1,000 g/ha. The method in brief:
as §1

Assay [5] relates to Ipomoea hederaceae (IPOHE). The description is as above. The note with it: Ipomoea, 312 h, read-out: Percentage damage caused to weed species, pre-emergence, IPOHE; for pest or weed control at 1000 g/ha: rate 1,000 g/ha. The method in brief: as §1
In assay [6] the test system is Echinochloa crus-galli (ECHCG). The assay is described as above. To be noted: Echinochloa crus-galli, 312 h, read-out: Percentage damage caused to weed species, pre-emergence, ECHCG; for pest or weed control at 1000 g/ha: rate 1,000 g/ha. The method in brief: as §1
Assay [7] deals with Alopecurus myosuroides (ALOMY). Put plainly: Post-emergence biological efficacy, glasshouse, 500 or 1000 g/ha, evaluated after 13 days (100=total damage to plant; 0=no damage to plant). The note with it: Alopecurus myosuroides, 312 h, read-out: Percentage damage caused to weed species, post-emergence, ALOMY; for pest or weed control at 1000 g/ha: rate 1,000 g/ha. The procedure, abridged: (§2)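 Damage is scored on pot-grown plants, sown in standard soil and sprayed after emergence, that were held post-treatment in a glasshouse (24/16° C. day/night, 14 hours light, 65% humidity).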

Assay [8] relates to Echinochloa crusgaffi (ECHCG). Described as above. The note with it: Echinochloa, 312 h, read-out: Percentage damage caused to weed species, post-emergence, ECHCG; for pest or weed control at 1000 g/ha: rate 1,000 g/ha. The procedure, abridged: as §2
Assay [9] has as its system Setaria faberi (SETFA). Described as above. The note with it: Setaria faberi, 312 h, read-out: Percentage damage caused to weed species, post-emergence, SETFA; for pest or weed control at 1000 g/ha: rate 1,000 g/ha. The method in brief: as §2
Assay [10] has as its system Solanum nigrum (SOLNI). The assay is described as above. The note with it: Solanum nigrum, 312 h, read-out: Percentage damage caused to weed species, post-emergence, SOLNI; for pest or weed control at 1000 g/ha: rate 1,000 g/ha. The procedure, abridged: as §2
Assay [11] deals with Amaranthus retroflexus (AMARE). Described as above. The note with it: Amaranthus retroflexus, 312 h, read-out: Percentage damage caused to weed species, post-emergence, AMARE; for pest or weed control at 1000 g/ha: rate 1,000 g/ha. The procedure, abridged:
as §2

Assay [12] deals with Ipomoea hederaceae (IPOHE). The assay is described as above. The note with it: Ipomoea, 312 h, read-out: Percentage damage caused to weed species, post-emergence, IPOHE; for pest or weed control at 1000 g/ha: rate 1,000 g/ha. The procedure, abridged:
as §2

`Cc1cc2c(C(=O)O)nc(-c3ccc(Cl)c(F)c3)nc2n1Cc1ccccc1` [Compound 6-21, 4-Carboxy-2-(4-chloro-3-fluorophenyl)-6-methyl-7-phenylmethyl-7H-pyrrolo[2,3-d]pyrimidine]: the pest or weed control at 250 g/ha (in assay [1] (rate 250 g/ha); in the assay with Setaria faberi (SETFA) [2] (rate 250 g/ha); with Solanum nigrum (SOLNI) [3] (rate 250 g/ha); in assay [4] (rate 250 g/ha); in assay [5] (rate 250 g/ha); in assay [6] (rate 250 g/ha)) was 0% each time. The pest or weed control at 250 g/ha is 10% in [7] (rate 250 g/ha); 0% in assay [8] (rate 250 g/ha); 0% with Setaria faberi (SETFA) [9] (rate 250 g/ha); 10% with Solanum nigrum (SOLNI) [10] (rate 250 g/ha); 0% in [11] (rate 250 g/ha); 10% in [12] (rate 250 g/ha).
With `COc1ccc(Cn2cc(C)c3c(C(=O)O)nc(-c4ccc(Cl)c(OC)c4F)nc32)cc1` [Compound 10-63, 4-Carboxy-2-(4-chloro-2-fluoro-3-methoxyphenyl)-7-(4-methoxyphenyl-methyl)-5-methyl-7H-pyrrolo[2,3-d]pyrimidine], the pest or weed control at 1000 g/ha (in assay [1]; in the assay with Setaria faberi (SETFA) [2]; in the assay on Solanum nigrum (SOLNI) [3]; in [4]; in assay [5]; in [6]) was 0% each time. Also, the pest or weed control at 1000 g/ha in assay [7] is 0%; in assay [8], 0%; in the assay with Setaria faberi (SETFA) [9] it was 0%; with Solanum nigrum (SOLNI) [10], 20%; in assay [11], 10%; in [12], 20%.
For the compound `COC(=O)c1nc(-c2ccc(Cl)c(OC)c2F)nc2c1c(C)cn2S(C)(=O)=O` [Compound 18-64, 2-(4-chloro-2-fluoro-3-methoxyphenyl)-4-methoxycarbonyl-5-methyl-7-methylsulphonyl-7H-pyrrolo[2,3-d]pyrimidine], the pest or weed control at 1000 g/ha (in assay [1]; in the assay with Setaria faberi (SETFA) [2]; with Solanum nigrum (SOLNI) [3]; in assay [4]; in [5]; in assay [6]) was 0% throughout. The pest or weed control at 1000 g/ha in [7] is 10%; in assay [8], 10%; with Setaria faberi (SETFA) [9] it was 30%; in the assay on Solanum nigrum (SOLNI) [10] it was 40%; in assay [11], 20%; in [12], 40%.
Regarding `COC(=O)c1nc(-c2ccc(Cl)c(OC)c2F)cc2[nH]ccc12` [Compound 22-62, 6-(4-Chloro-2-fluoro-3-methoxyphenyl)-4-methoxycarbonyl-1H-pyrrolo[3,2-c]pyridine], the pest or weed control at 1000 g/ha was 0% in assay [1]; 0% in the assay on Setaria faberi (SETFA) [2]; 20% in the assay on Solanum nigrum (SOLNI) [3]; 20% in assay [4]; 50% in assay [5]; 0% in [6]. For the same compound, the pest or weed control at 1000 g/ha in assay [7] came to 0%; in assay [8], 50%; in the assay with Setaria faberi (SETFA) [9], 20%; in the assay on Solanum nigrum (SOLNI) [10], 70%; in assay [11], 80%; in assay [12], 60%.
On to `COC(=O)c1nc(-c2ccc(Cl)c(OC)c2F)nc2c1cc(C)n2Cc1ccco1` [Compound 11-66, 2-(4-Chloro-2-fluoro-3-methoxyphenyl)-7-(2-furanylmethyl)-4-methoxycarbonyl-6-methyl-7H-pyrrolo[2,3-d]pyrimidine], for which the pest or weed control at 1000 g/ha (in assay [1]; with Setaria faberi (SETFA) [2]; in the assay with Solanum nigrum (SOLNI) [3]; in [4]; in [5]; in assay [6]) was 0% in each case. The pest or weed control at 1000 g/ha in assay [7] was found to be 10%; in assay [8], 20%; with Setaria faberi (SETFA) [9], 10%; with Solanum nigrum (SOLNI) [10] it was 50%; in [11], 20%; in assay [12], 30%.
Consider `COC(=O)c1nc(-c2ccc(Cl)c(OC)c2F)cc2c1c(C)cn2C(=O)C(C)(C)C` [Compound 37-64, 1-t-Butylcarbonyl-6-(4-chloro-2-fluoro-3-methoxyphenyl)-4-methoxycarbonyl-3-methyl-1H-pyrrolo[3,2-c]pyridine], for which the pest or weed control at 1000 g/ha (in assay [1]; in the assay with Setaria faberi (SETFA) [2]; in the assay on Solanum nigrum (SOLNI) [3]; in [4]; in [5]; in assay [6]) was 0% in each case. The pest or weed control at 1000 g/ha in assay [7] was determined as 0%; in assay [8], 0%; in the assay with Setaria faberi (SETFA) [9], 0%; with Solanum nigrum (SOLNI) [10], 50%; in assay [11] it was 0%; in [12], 40%.
Turning to `CCCCOCCOC(=O)c1nc(-c2ccc(Cl)c(OC)c2F)nc2[nH]cc(C)c12` [Compound 1-83, 4-[(2-n-Butoxy)-ethoxycarbonyl]-2-(4-chloro-2-fluoro-3-methoxyphenyl)-5-methy-7H-pyrrolo[2,3-d]pyrimidine], the pest or weed control at 1000 g/ha in [1] is 0%; with Setaria faberi (SETFA) [2], 0%; with Solanum nigrum (SOLNI) [3], 30%; in [4] it was 40%; in assay [5], 20%; in assay [6] it was 0%. The pest or weed control at 1000 g/ha is 0% in assay [7]; 10% in assay [8]; 10% in the assay on Setaria faberi (SETFA) [9]; 70% with Solanum nigrum (SOLNI) [10]; 70% in assay [11]; 40% in assay [12].
Turning to `COC(=O)c1nc(-c2ccc(Cl)c(OC)c2F)cc2[nH]cc(C)c12` [Compound 22-64, 6-(4-chloro-2-fluoro-3-methoxyphenyl)-4-methoxycarbonyl-3-methyl-1H-pyrrolo[3,2-c]pyridine], the pest or weed control at 1000 g/ha in assay [1] came out at 10%; with Setaria faberi (SETFA) [2], 20%; with Solanum nigrum (SOLNI) [3], 80%; in assay [4] it was 90%; in assay [5], 60%; in [6], 70%. Besides, the pest or weed control at 1000 g/ha in [7] amounted to 50%; in assay [8] it was 80%; in the assay with Setaria faberi (SETFA) [9], 70%; in the assay on Solanum nigrum (SOLNI) [10] it was 90%; in assay [11], 100%; in [12], 70%.
